Experiments:
[1] = Determination of the odor threshold values in water
Protocol: The odor threshold values in water were determined in the conventional manner for (Z)-8- and (E)-8-tetradecenal and for two comparison substances.

[2] = Odor description by a panel of expert flavoring specialists, ranking scale 0-4; design: key to Green-herby / Honey-like (beeswax) / Fresh, fizzy / Citrus-like / Fruity / Flowery / Of orange peel / Of pith / Sweet / Fatty / Waxy: 0: absent; 1: weak; 2: moderate; 3: strong; 4: very strong; conditions: odor ranking 0-4, expert panel
Protocol: The substances (Z)-8- and (E)-8-tetradecenal according to the invention were tested by a panel of expert flavoring specialists in the conventional manner. The experts assessed the relevant odors on the basis of the procedure in the article entitled “Organoleptic properties of aliphatic aldehydes”, Boelens, Mans H.; Van Gemert, Leo J.; Perfum. Flavor. (1987), 12(5), 31-7, 40, 43, which has already been cited, i.e. they quantified the odors of the particular substance on the basis of an assessment scale with rankings of 0-4. The rankings have the following meanings: • 0: absent • 1: weak • 2: moderate • 3: strong • 4: very strong

[3] = Modification of a conventional orange flavor composition; conditions: based on the total mass of the composition
Text: A conventional flavor composition (composition A) was compared with a flavor composition according to the invention (composition B).

[4] = Cadwallader et al. 1999; cited from earlier work
[5] = Boelens, Van Gemert 1987; cited from earlier work

In the case of `CCCCCC/C=C\CCCCCC=O` [7-(Z)-tetradecenal, (Z)-7-tetradecenal], the “usable sensory properties compared with (Z)-8-tetradecenal” value [1] is reported as “do not have any usable sensory properties”, the Odor threshold value ([1]; in water) is reported as 2.60 ppb and the “odor threshold compared with that of (Z)-8-tetradecenal” value ([1]; in water) is reported as “approximately two orders of magnitude higher”.

In the case of `CCCCC/C=C/CCCCCCC=O` [8-(E)-tetradecenal, (E)-8-tetradecenal], the Odor threshold value ([1]; in water) is reported as 1.24 ppb, the Chemical [2] is reported as 2-3 and the Citrus-like [2] is reported as 1-2. For the same molecule, the Fatty [2] was 4, the Flowery [2] was 0-1 and the “Fresh, fizzy” value [2] was 0. For the same molecule, the Fruity [2] was 0, the Green-herby [2] was 1 and the “Honey-like (beeswax)” value [2] was 0. For the same molecule, the Of orange peel [2] was 0, the Of pith [2] was 1 and the Sweet [2] was 1-2. It also gave a Waxy [2] of 4.

For `CCCCC/C=C\CCCCCCC=O` [8-(Z)-tetradecenal, (Z)-8-tetradecenal], the Odor threshold value ([1]; in water) was 0.009 ppb, the “odor threshold value lower than that of (Z)-7-tetradecenal and (Z)-9-tetradecenal” value ([1]; in water) was “approximately 2 orders of magnitude” and the Chemical [2] was 0-1. It also gave a Citrus-like [2] of 4, a Fatty [2] of 1 and a Flowery [2] of 2. The “Fresh, fizzy” value [2] was 4, the Fruity [2] was 1 and the Green-herby [2] was 0. For the same molecule, the “Honey-like (beeswax)” value [2] was 2, the Of orange peel [2] was 4 and the Of pith [2] was 4. For the same molecule, the Sweet [2] was 3, the Waxy [2] was 1-2 and the “proportion sufficient to make a conventional orange flavor fresher, juicier, more typical and more harmonious” value [3] was 0.001 % (m/m).

For `CCCC/C=C\CCCCCCCC=O` [9-(Z)-tetradecenal, (Z)-9-tetradecenal], the “usable sensory properties compared with (Z)-8-tetradecenal” value [1] was “do not have any usable sensory properties”, the Odor threshold value ([1]; in water) was 1.44 ppb and the “odor threshold compared with that of (Z)-8-tetradecenal” value ([1]; in water) was “approximately two orders of magnitude higher”.

In the case of `CCCCCCCCCCC/C=C/C=O` [(E)-2-tetradecenal], the odor description [4] is given as “fatty, waxy, cheesy”, the citrus aspect [5] is given as “weak” and the fatty aspect [5] is given as “strong”.

For `CCCCC/C=C/CCC=O` [(E)-4-decenal], the odor description [4] is given as “citrus peel”.

In the case of `CCCCCCC/C=C/C=O` [trans-2-decenal], the citrus aspect [5] is listed as “noteworthy”.

For `CCCCC/C=C/C=O` [trans-2-octenal], the citrus aspect [5] is given as “noteworthy”.

In the case of `CCCCCCCC/C=C/C=O` [trans-2-undecenal], the citrus aspect [5] is given as “noteworthy”.

Source: patent publication US7332468B2, “8-tetradecenal as fragrance and flavoring substance” (Symrise GmbH & Co. KG, priority 2001, dated 2008)
